Consider five molecules from ChEMBL document CHEMBL1127888, “Synthesis and biological activity of intercalator substituted bile steroids” (Bioorg Med Chem Lett, 1994).

Structures are written as SMILES.

Broadly, the IC50 is the point on the concentration scale where inhibition reaches its midpoint.

Experiment [1] has as its system L1210. Put plainly: Inhibitory activity against mouse leukemia L1210 cells; Range is 20 to >50. The class given is functional, cell-based.
Experiment [2] relates to L1210. Put plainly: Inhibitory activity against mouse leukemia L1210 cells. The class given is functional, cell-based.

With `CC(CCCOC(=O)c1ccc2ccccc2n1)C1CC[C@H]2[C@@H]3[C@H](O)CC4C[C@H](OC(=O)c5ccc6ccccc6n5)CC[C@]4(C)[C@H]3C[C@H](O)[C@]12C` (stereo not given in full), the IC50 in experiment [1] is greater than 50 µM.

With `CC(CCCOC(=O)c1cnc2ccccc2c1)C1CC[C@H]2[C@@H]3[C@H](O)CC4C[C@H](O)CC[C@]4(C)[C@H]3C[C@H](O)[C@]12C` (stereo not given in full), the 50% inhibitory concentration (IC50) in experiment [2] amounted to 4.8 µM. For the molecule `CC(CCCOC(=O)c1ccc2ccccc2n1)C1CC[C@H]2[C@@H]3[C@H](O)CC4C[C@H](OC(=O)c5cnc6ccccc6n5)CC[C@]4(C)[C@H]3C[C@H](O)[C@]12C` (stereo not given in full), the IC50 in experiment [1] was greater than 50 µM.

For `CC(CCCOC(=O)c1cnc2ccccc2c1)C1CC[C@H]2[C@@H]3[C@H](O)CC4C[C@H](OC(=O)c5cnc6ccccc6c5)CC[C@]4(C)[C@H]3C[C@H](O)[C@]12C` (stereo not given in full), in experiment [1], the IC50 is greater than 50 µM. The same measure, in the same setting: with `CC(CCCOC(=O)c1cnc2ccccc2n1)C1CC[C@H]2[C@@H]3[C@H](O)CC4C[C@H](OC(=O)c5cnc6ccccc6n5)CC[C@]4(C)[C@H]3C[C@H](O)[C@]12C` (stereo not given in full) the figure was greater than 50 µM.
